Experimental data as given in US9101566B2, “Fermentation product of cereal plant-derived material and immunomodulator” (KIRIN HOLDINGS KABUSHIKI KAISHA, priority 2009, dated 2015).

Columns and labels:
[1] = Solubility in solvent; format: physicochemical
[2] = test system: mDCs treated with 14-DHE co-cultured with OVA-specific naive CD4+ T cells; experiment: Antigen-specific Treg-inducing capacity of DCs treated with 14-DHE (Example 10); format: cell-based, mouse
Experimental: Various DCs were prepared similarly to (A). Next, naive CD4^+ T cells were sorted from DO11.10 mice (Charles River) having OVA-specific TCR, DCs were mixed with the sorted cells at DC:CD4^+ T=1:10 (the number of cells), and then the cells were co-cultured. At this time, the medium was supplemented with 0.5 ng/mL TGF-β1 and 0.1 μM OVA323-339 peptide and then culture was performed for 5 days. Subsequently, Treg generation efficiency was determined as in (A) above.
In a manner similar to that in Example 5, the Treg-inducing activity of mDCs treated with 14-DHE was measured. Similar measurement was also performed using DCs not treated with 14-DHE as a control.

[3] = test system: C57BL/6 mDCs co-cultured with BALB/c CD4+CD62L+ T cells; experiment: Cytokine profile of CD4+ T cells induced by DCs treated with 14-DHE, MLR (Example 11); format: cell-based, mouse; conditions: 14-DHE 3 μM, day 4 supernatant, vs control mDC
Experimental: In a manner similar to that described in the above Examples, bone marrow cells were prepared from C57BL/6 mouse thigh bone, and then dendritic cells were induced using Flt-3L. 14-DHE was added at 3 μM simultaneously with the initiation of culture. Seven days later, Salmonella typhosa-derived LPS (Sigma Aldrich) was added at 5 ng/mL and then 24 hours later, cells were recovered. Subsequently, CD11c^+CD11b^+ was set as a gate for mDCs and then recovered cells were sorted. Next, from the BALB/c mouse spleen, CD4^+CD62L^+ T cells were isolated using the CD4^+CD62L^+ T cell isolation kit II (mouse) (Miltenyi Biotec), followed by mixed culture at a ratio of mDC:CD4^+T cell of 1:5. As a control, mDC prepared in the absence of 14-DHE was used. A culture supernatant on day 4 of culture was recovered, and then TNF-α, IFN-γ, IL-6, IL-10, and IL-17 were measured by ELISA. As ELISA kits, Mouse TNF-α Ready-SET-Go! (eBioscience), a BD OptEIA Mouse IFN-γ ELISA set (BD Life Science), Mouse IL-6 Ready-SET-Go! (eBioscience), a BD OptEIA Mouse IL-10 ELISA set (BD Life Science), and Mouse IL-17 DuoSet ELISA (R&D Systems) were separately used.

[4] = test system: mDCs (CD11b+CD11c+B220-) of EAE mice; experiment: EAE model, day 11 autopsy: mDC activation markers; format: in vivo, mouse; conditions: autopsy on day 11
Experimental: On day 0, the 35-55 peptide (MOG35-55, Operon), a glycoprotein of myelin oligodendroglial cells, as an antigen was mixed with complete Freund's adjuvant (CFA, Difco) and then the mixture was subcutaneously administered at a dose of 200 μg/animal. Subsequently, pertussis toxin (Wako Pure Chemical Industries, Japan) was intraperitoneally administered at a dose of 200 ng/animal on day 1 and day 3, thereby inducing the onset of multiple sclerosis. During days 7 to 18, 14-DHE was intraperitoneally administered at a dose of 10 μg/animal once a day. To the vehicle group, the following solvent for 14-DHE was administered: 10% ethanol (Wako Pure Chemical Industries, Japan)/10% Cremophor (Wako Pure Chemical Industries, Japan)/80% PBS (Takara, Japan). Mice were autopsied on day 11 (when inflammation was thought to take place in vivo) to obtain biochemical data. […] A gate was set on mDCs, which are CD11b^+CD11c^+B220^− cells, and I-A/I-E (MHC class II), CD86, and CD80 were measured as activation markers.

[5] = test system: C57BL/6 mDCs co-cultured with BALB/c CD8+ T cells; experiment: CD8+ Treg differentiation-inducing capacity of DCs treated with 14-DHE (Example 12); format: cell-based, mouse; conditions: mDC:CD8+ T 1:10; 0.5 ng/mL TGF-α 3; 5 days
Experimental: In a manner similar to Example 11, mDCs were sorted from DCs induced from C57BL/6 mouse bone marrow cells in the presence of 14-DHE and Flt-3L. Next, CD8^+ T cells were isolated from the BALB/c mouse spleen using the CD8α^+ T cell isolation kit (mouse) (Miltenyi Biotec). Cells were mixed at a ratio of mDC:CD8^+ T cell of 1:10 and then cultured in the medium containing 0.5 ng/mL […] for 5 days. Five days later, the cells were recovered and then the proportion of CD25^+FoxP3^+ cells in CD8^+ T cells was determined using a flow cytometer. Prior to flow cytometry, cell staining was performed using CD8α-PE-Cy7, CD25-APC-Cy7, and CD3e-PerCP, cell membrane permeabilization treatment was performed using the FoxP3 staining buffer set (eBioscience), and then FoxP3-PE staining was performed.

[6] = test system: C57BL/6 mDCs co-cultured with OT-II mouse naive CD4+ T cells; experiment: Cytokine profile of CD4+ T cells induced by DCs treated with 14-DHE, antigen-specific T cell reaction (Example 11); format: cell-based; conditions: 0.1 μM OVA323-339 peptide, day 4, vs control mDCs
Experimental: mDCs were prepared by the method same as that in the MLR experiment. Naive CD4^+ T cells were prepared from OT-II mice (Charles River) in which TCR of CD4^+ T cells is specific for OVA323-339 epitope on the C57BL/6 background. Mixed culture was performed at a ratio of mDC:CD4^+ T cell of 1:5 in the presence of 0.1 μM OVA323-339 peptide. The culture supernatant was recovered on day 4 of culture, and then TNF-α, IFN-γ, IL-6, IL-10, and IL-17 were measured by ELISA.

Structure (SMILES): CC(C)[C@@H](C)/C=C/[C@@H](C)[C@H]1CC=C2C3=CC=C4C[C@@H](O)CC[C@]4(C)[C@H]3CC[C@@]21C [Sample 14-DHE, ergosta-5,7,14,22-tetraen-3β-ol]
- Solubility in solvent: chloroform ([1]; chloroform): readily soluble
- Solubility in solvent: ethanol ([1]; ethanol): hardly soluble
- Solubility in solvent: water ([1]; water): insoluble
- generation of Treg compared with the control [2]: about 2 times
- IFN-γ production (ELISA) [3]: significant decreases
- IL-6 production (ELISA) [3]: significant decreases
- IL-10 production (ELISA) [3]: no statistically significant difference was observed
- IL-17 production (ELISA) [3]: significant decreases
- TNF-α production (ELISA) [3]: significant decreases
- CD80 on mDCs, lymph node [4]: significant decrease
- CD86 on mDCs, lymph node [4]: decreasing trend
- I-A/I-E (MHC class II) on mDCs, lymph node [4]: decreasing trend
- I-A/I-E on mDCs, spinal cord [4]: significant decrease
- induction of CD8+CD25+FoxP3+ cells compared with control mDCs [5]: ≥ 3 times
- IFN-γ production (ELISA) [6]: no statistically significant difference was observed
- IL-6 production (ELISA) [6]: a significant decrease
- IL-10 production (ELISA) [6]: significant increase
- IL-17 production (ELISA) [6]: no statistically significant difference was observed
- TNF-α production (ELISA) [6]: a significant decrease
